How the values were obtained:
[1] = molecular target: T1, β-Galactosidase (E. Coli, EC. 3.2.1.23) (Escherichia coli, UniProt P00722); test: β-Galactosidase (E. coli) enzyme inhibition assay (o-nitrophenyl β-D-galactopyranoside); type: biochemical; conditions: pH 7.3, room temperature, 30 minutes; read-out: IC50 (M) β-Galactosidase (E. coli)
T1 construct: purchased Sigma; host or cells: E. coli
Description: By using a 96-well microplate, the absorbance (at 405 nm) of liberated p- or o-nitrophenol was measured with a microplate reader (MPR-4Ai, manufactured by Tosoh Corporation).
The enzymes employed herein [α-glucosidase (Baker's yeast), β-glucosidase (Almonds), α-galactosidase (E. coli), β-galactosidase (E. coli) and β-galactosidase (Bovine Liver)] were all purchased from Sigma.
The substrates (p- or o-nitrophenylglycoside) of these enzymes were all purchased from Sigma.
4) β-Galactosidase (E. Coli, EC. 3.2.1.23) [described in G. R. Craven, E. Steers, Jr. and C. B. Anfinsen, J. Biol. Chem., 240, 2468-2477 (1965)]
Into each well were introduced an aqueous solution of a sample (2 μl), a buffer (153 μl), a 20 mM solution of o-nitrophenyl β-D-galactopyranoside in a buffer (25 μl), a 100 mM 2-mercaptoethanol (10 μl) and a (10 μg/ml) enzyme solution in the buffer (10 μl) to give a total volume of 200 μl. After incubating at room temperature (20°-30° C.) for 30 minutes, the absorbance (A405) of o-nitrophenol liberated by this enzyme reaction was measured. To give the blank absorbance (Ablank), the sample (2 μl), the substrate (25 μl), the buffer solution (163 μl) and 2-mercaptoethanol (10 μl) were incubated in the same manner followed by the measurement of the absorbance. To give the control absorbance (Acontrol), on the other hand, water (2 μl), the substrate (25 μl), the buffer solution (153 μl), 2-mercaptoethanol (10 μl) and the enzyme solution (10 μl) were incubated in the same manner followed by the measurement of the absorbance. A 50 mM phosphate buffer solution (pH 7.3, prepared from KH2 PO4 and K2 HPO4, containing 1.3 mM of MgCl2) was employed as the buffer for the enzyme reaction. The IC50 was determined in the same manner as employed in the case of α-glucosidase.

[2] = molecular target: T2, α-glucosidase I (Baker's yeast) (Saccharomyces cerevisiae, UniProt P53008); test: Inhibitory activity on α-glucosidase I (Ki); type: biochemical; conditions: α-glucosidase I, substrate 0.25-4.0 mM, 37° C., 1 hour; read-out: Ki
T2 construct: made in house; host or cells: Baker's yeast (native enzyme, prepared by the cited method)
T2 sequence (P53008 25-833 limits assumed): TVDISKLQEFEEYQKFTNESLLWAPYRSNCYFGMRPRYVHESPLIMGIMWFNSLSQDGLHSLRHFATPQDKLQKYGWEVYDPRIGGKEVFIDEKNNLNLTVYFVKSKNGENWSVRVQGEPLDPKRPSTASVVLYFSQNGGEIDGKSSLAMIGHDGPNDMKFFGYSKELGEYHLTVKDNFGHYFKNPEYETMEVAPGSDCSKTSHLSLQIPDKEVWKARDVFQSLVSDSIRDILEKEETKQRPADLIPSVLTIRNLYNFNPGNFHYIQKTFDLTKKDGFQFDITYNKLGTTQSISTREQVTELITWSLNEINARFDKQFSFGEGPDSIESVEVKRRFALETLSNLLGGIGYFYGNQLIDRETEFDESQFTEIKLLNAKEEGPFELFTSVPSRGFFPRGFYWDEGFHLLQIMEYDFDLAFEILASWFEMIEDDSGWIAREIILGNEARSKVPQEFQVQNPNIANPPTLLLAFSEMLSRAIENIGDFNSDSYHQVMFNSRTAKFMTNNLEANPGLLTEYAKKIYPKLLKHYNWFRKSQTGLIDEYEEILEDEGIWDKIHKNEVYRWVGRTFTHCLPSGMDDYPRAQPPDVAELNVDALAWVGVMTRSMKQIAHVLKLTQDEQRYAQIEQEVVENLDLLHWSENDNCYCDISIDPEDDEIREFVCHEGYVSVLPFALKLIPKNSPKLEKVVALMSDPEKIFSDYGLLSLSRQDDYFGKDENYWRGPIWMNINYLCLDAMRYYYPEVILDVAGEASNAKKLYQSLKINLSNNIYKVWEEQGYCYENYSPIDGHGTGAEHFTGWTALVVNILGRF
Description: The α-glucosidase I (Baker's yeast) and its substrate (α-D-Glcl→2α-D-Glcl→3α-D-Glc-O(CH2)6 COOCH3) employed herein were prepared in accordance with the method of I. Neverova et al., Anal. Biochem., 222, 190-196 (1994).
The following measurements were performed by the methods described in this literature.
Namely, 25 μl of a buffer solution containing α-glucosidase I was added to a microtube containing the above-mentioned sample and the substrate (α-D-Glcl→2α-D-Glcl→3α-D-Glc-O(CH2)6 COOCH3). After incubating at 37° C. for 1 hour, a 1.25M tris hydrochloride buffer solution (pH 7.6, 25 μl) was added to thereby cease .the reaction. Then the reaction mixture was transferred onto a microplate followed by the addition of 250 μl of a reaction buffer solution [developing solution; 1M tris hydrochloride buffer solution (pH 7.2) containing glucose oxidase (5 units/ml, manufactured by Sigma), horseradish peroxidase (1 purpurogallin units, manufactured by Sigma) and o-dianisidine dihydrochloride (40 μg/ml)]. Then the mixture was incubated at 37° C. for 30 minutes or until an increase in the absorbance attained a plateau. Then the absorbance (A450-650) of the o-dianisidine formed and oxidized by this enzyme reaction was measured. As a blank, the above reaction was repeated but adding neither the above-mentioned sample nor substrate and the absorbance was measured. Also, the above-mentioned reaction buffer solution was added to D-glucose of a known concentration and the resulting mixture was incubated followed by the measurement of the absorbance to thereby examine a relationship between D-glucose concentration and absorbance. Each measurement was effected in two wells at the same time.
Based on the above-mentioned relationship between D-glucose concentration and absorbance, the amount of glucose liberated from the substrate due to the enzyme reaction of α-glucosidase I in the presence of the sample was determined. From the result thus obtained, Km was determined and then Ki was determined from the sample amount and the Km value.

T1 sequence (P00722 2-1024 limits assumed): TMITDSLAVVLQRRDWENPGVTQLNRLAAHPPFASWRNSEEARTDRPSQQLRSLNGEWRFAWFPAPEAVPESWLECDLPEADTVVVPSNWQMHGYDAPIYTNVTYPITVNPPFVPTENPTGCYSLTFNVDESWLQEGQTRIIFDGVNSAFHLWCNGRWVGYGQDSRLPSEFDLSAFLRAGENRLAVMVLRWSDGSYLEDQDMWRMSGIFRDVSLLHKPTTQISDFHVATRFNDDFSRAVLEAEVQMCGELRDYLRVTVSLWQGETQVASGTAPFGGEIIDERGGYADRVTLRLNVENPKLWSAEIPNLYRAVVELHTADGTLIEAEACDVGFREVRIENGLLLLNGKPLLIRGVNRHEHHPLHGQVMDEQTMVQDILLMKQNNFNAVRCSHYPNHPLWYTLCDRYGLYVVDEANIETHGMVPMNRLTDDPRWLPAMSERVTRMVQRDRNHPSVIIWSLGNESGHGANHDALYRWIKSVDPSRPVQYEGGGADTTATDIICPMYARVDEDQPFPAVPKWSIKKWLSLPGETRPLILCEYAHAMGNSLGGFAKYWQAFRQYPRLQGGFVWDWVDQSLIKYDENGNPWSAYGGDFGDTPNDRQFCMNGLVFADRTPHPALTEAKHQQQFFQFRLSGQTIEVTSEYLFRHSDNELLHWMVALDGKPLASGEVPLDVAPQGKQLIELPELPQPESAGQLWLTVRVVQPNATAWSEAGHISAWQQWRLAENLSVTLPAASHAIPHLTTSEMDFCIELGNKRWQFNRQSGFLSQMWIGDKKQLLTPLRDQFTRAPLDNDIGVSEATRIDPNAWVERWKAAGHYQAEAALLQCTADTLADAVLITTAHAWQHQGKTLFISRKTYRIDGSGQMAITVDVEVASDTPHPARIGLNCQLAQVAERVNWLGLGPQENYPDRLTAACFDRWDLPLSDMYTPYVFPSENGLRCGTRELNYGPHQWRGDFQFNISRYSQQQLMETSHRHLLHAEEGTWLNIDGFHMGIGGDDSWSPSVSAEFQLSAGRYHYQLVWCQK

SMILES: OC[C@@]12OC(Nc3ccccc3)=N[C@@H]1[C@H](O)[C@@H](O)[C@@H]2O [Compound 1-2L, (1S,5R,6S,7R,8S)-1-hydroxymethyl-3-phenylamino-2-oxa-4-azabicyclo[3.3.0]oct-3-ene-6,7,8-triol]
- IC50 [1]: > 0.0003 M
- Ki [2]: 51 µM

— patent publication US5684026A, “Aminocyclopentane derivative” (priority 1994, dated 1997)
